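Results reflect a 48-hour exposure of cells in 96-well plates to compound at five concentrations. The concentration for 50% growth inhibition is given as GI50. Definition used: TGI = concentration required for complete inhibition of growth.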
Key:
Assay in all cases: growth of human tumour cells (NCI), 48 h; in the data active = GI50 below about 0.43 µM; inactive = the rest
A549 NSCLC = system: A549 NSCLC
CCRF-CEM leukemia = system: CCRF-CEM leukemia
EKVX NSCLC = system: EKVX NSCLC
HCT-116 colon = system: HCT-116 colon
HCT-15 colon = system: HCT-15 colon
SN12C renal = system: SN12C renal
SNB-75 CNS = system: SNB-75 CNS
HOP-92 NSCLC = system: HOP-92 NSCLC
SF-268 CNS = system: SF-268 CNS
BT-549 breast = system: BT-549 breast

CN(C)C(=O)CC(C(=O)O)c1c[nH]c2ccccc12 (stereo unspecified)
> 100 µM: TGI (A549 NSCLC) | TGI (CCRF-CEM leukemia) | TGI (EKVX NSCLC) | TGI (HCT-116 colon) | TGI (HCT-15 colon) | TGI (SN12C renal) | TGI (SNB-75 CNS)

CCOc1ccccc1NC(=O)CCc1nnc2s/c(=C\CCc3ccccc3)c(=O)n12
> 100 µM: TGI (A549 NSCLC) | TGI (CCRF-CEM leukemia) | TGI (HCT-116 colon) | TGI (HCT-15 colon) | TGI (HOP-92 NSCLC) | TGI (SF-268 CNS) | TGI (SN12C renal) | TGI (SNB-75 CNS)

O=C(CC/C(C/C(=N/O)c1ccc(F)cc1)=N/O)N(Cc1ccccc1)Cc1ccccc1
> 100 µM: TGI (A549 NSCLC) | TGI (CCRF-CEM leukemia) | TGI (EKVX NSCLC) | TGI (HCT-116 colon) | TGI (HCT-15 colon) | TGI (HOP-92 NSCLC) | TGI (SF-268 CNS) | TGI (SN12C renal) | TGI (SNB-75 CNS)

NC(=O)N/N=C(\Cc1nc2ccc(C(=O)c3ccccc3)cc2[nH]c1=O)C(=O)Nc1ccc(Br)cc1
> 100 µM: TGI (A549 NSCLC) | TGI (CCRF-CEM leukemia) | TGI (EKVX NSCLC) | TGI (HCT-116 colon) | TGI (HCT-15 colon) | TGI (HOP-92 NSCLC) | TGI (SF-268 CNS) | TGI (SN12C renal) | TGI (SNB-75 CNS)

Cc1ccc(-c2ccc(Nc3c4ccccc4nc4ccccc34)cc2)cn1
> 100 µM: TGI (EKVX NSCLC) | TGI (SF-268 CNS)
15.3 µM: TGI (SN12C renal)
17.2 µM: TGI (HCT-15 colon)
10.3 µM: TGI (A549 NSCLC) | TGI (HCT-116 colon)
3.28 µM: TGI (HOP-92 NSCLC)

NCCNCC(O)CO (stereo unspecified)
> 100 µM: TGI (A549 NSCLC) | TGI (BT-549 breast) | TGI (EKVX NSCLC) | TGI (HCT-116 colon) | TGI (HCT-15 colon) | TGI (HOP-92 NSCLC) | TGI (SF-268 CNS) | TGI (SN12C renal) | TGI (SNB-75 CNS)

Cc1ccc(S(=O)(=O)N2CCC3(C(/C=C/c4ccccc4)=Nc4ccccc43)C2c2ccccc2)cc1 (stereo unspecified)
> 100 µM: TGI (A549 NSCLC) | TGI (CCRF-CEM leukemia) | TGI (EKVX NSCLC) | TGI (HCT-116 colon) | TGI (HCT-15 colon) | TGI (HOP-92 NSCLC) | TGI (SF-268 CNS) | TGI (SN12C renal) | TGI (SNB-75 CNS)

COC(=O)C1=C(C(=O)OC)C23C=CC=CC24C(C(=O)OC)=C(C(=O)OC)C4C1C3 (stereo unspecified)
9.08 µM: TGI (SNB-75 CNS)
> 100 µM: TGI (A549 NSCLC) | TGI (CCRF-CEM leukemia) | TGI (EKVX NSCLC) | TGI (HCT-116 colon) | TGI (HCT-15 colon) | TGI (HOP-92 NSCLC) | TGI (SF-268 CNS) | TGI (SN12C renal)

O=C1/C(=C/c2ccccc2)SC(=Nc2ccccc2)N1Nc1ccccc1
42.2 µM: TGI (HOP-92 NSCLC)
23.4 µM: TGI (SN12C renal)
inactive: GI50 (A549 NSCLC) 12 µM | GI50 (BT-549 breast) 6.51 µM | GI50 (CCRF-CEM leukemia) 4.07 µM | GI50 (EKVX NSCLC) 7.28 µM | GI50 (HCT-116 colon) 4.49 µM | GI50 (HCT-15 colon) 5.1 µM | GI50 (HOP-92 NSCLC) 3.6 µM | GI50 (SF-268 CNS) 31.3 µM | GI50 (SN12C renal) 5.48 µM
> 100 µM: TGI (A549 NSCLC) | TGI (CCRF-CEM leukemia) | TGI (EKVX NSCLC) | TGI (HCT-116 colon) | TGI (HCT-15 colon) | TGI (SF-268 CNS)
35.7 µM: TGI (BT-549 breast)

CC1C=C(OC(=O)c2ccccc2)C(=O)C(n2cc(F)c(=O)n(C(=O)c3ccccc3)c2=O)O1 (stereo unspecified)
> 100 µM: TGI (A549 NSCLC) | TGI (EKVX NSCLC) | TGI (HCT-116 colon) | TGI (HCT-15 colon) | TGI (HOP-92 NSCLC) | TGI (SN12C renal)
45.2 µM: TGI (CCRF-CEM leukemia)
91.9 µM: TGI (SNB-75 CNS)

CN(C)c1ccc(/C=C2\CNC/C(=C\c3ccc(N(C)C)cc3)C2=O)cc1
15.5 µM: TGI (HCT-15 colon)
> 100 µM: TGI (CCRF-CEM leukemia) | TGI (EKVX NSCLC)
55.2 µM: TGI (HOP-92 NSCLC)
35.1 µM: TGI (HCT-116 colon)
75.4 µM: TGI (SN12C renal)
27.2 µM: TGI (SNB-75 CNS)
56.5 µM: TGI (A549 NSCLC)

Source: PubChem BioAssay (NCI)
